Source: PubChem BioAssay (NCI)
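Protocol summary: plate cells (96-well), add compound at 5 concentrations, incubate 48 h, interpolate endpoints linearly. At the TGI there is no net growth.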

Legend:
Experiment in all cases: NCI tumour cell line growth inhibition, 48 h
CAKI-1 renal = tested on: CAKI-1 renal
CCRF-CEM leukemia = tested on: CCRF-CEM leukemia
HCT-116 colon = tested on: HCT-116 colon
HOP-62 NSCLC = tested on: HOP-62 NSCLC
K-562 leukemia = tested on: K-562 leukemia
LOX IMVI melanoma = tested on: LOX IMVI melanoma
MOLT-4 leukemia = tested on: MOLT-4 leukemia
NCI-H23 lung = tested on: NCI-H23 lung
NCI-H460 lung = tested on: NCI-H460 lung
SF-295 CNS = tested on: SF-295 CNS
SN12C renal = tested on: SN12C renal
UACC-62 melanoma = tested on: UACC-62 melanoma
SNB-75 CNS = tested on: SNB-75 CNS
UO-31 renal = tested on: UO-31 renal
MCF7 breast = tested on: MCF7 breast
PC-3 prostate = tested on: PC-3 prostate
T-47D breast = tested on: T-47D breast
BT-549 breast = tested on: BT-549 breast

| SMILES | TGI (CAKI-1 renal) | TGI (CCRF-CEM leukemia) | TGI (HCT-116 colon) | TGI (HOP-62 NSCLC) | TGI (K-562 leukemia) | TGI (LOX IMVI melanoma) | TGI (MOLT-4 leukemia) | TGI (NCI-H23 lung) | TGI (NCI-H460 lung) | TGI (SF-295 CNS) | TGI (SN12C renal) | TGI (UACC-62 melanoma) | TGI (SNB-75 CNS) | TGI (UO-31 renal) | TGI (MCF7 breast) | TGI (PC-3 prostate) | TGI (T-47D breast) | TGI (BT-549 breast) |
| --- | --- | --- | --- | --- | --- | --- | --- | --- | --- | --- | --- | --- | --- | --- | --- | --- | --- | --- |
| Cc1nc2sccn2c1C(=O)NN | > 100 µM | > 100 µM | > 100 µM | > 100 µM | > 100 µM | > 100 µM | > 100 µM | > 100 µM | > 100 µM | > 100 µM | > 100 µM | > 100 µM |  |  |  |  |  |  |
| COc1cc(C2C(Cl)C(=O)N2NC(=O)Cc2ccccc2)cc(Br)c1O (stereo not given) | > 100 µM | > 100 µM | > 100 µM | > 100 µM | > 100 µM | > 100 µM | > 100 µM | > 100 µM | > 100 µM | > 100 µM | > 100 µM | > 100 µM | > 100 µM | > 100 µM |  |  |  |  |
| O=C(O)c1ccccc1C(=O)NCC1S(=O)(=O)OCCOS1(=O)=O | > 100 µM | > 100 µM | > 100 µM | > 100 µM | > 100 µM | > 100 µM | > 100 µM | > 100 µM | > 100 µM | > 100 µM | > 100 µM | > 100 µM | > 100 µM | > 100 µM | > 100 µM | > 100 µM | > 100 µM |  |
| Cc1ccc2c(c1)C(=C(C#N)C#N)CCCS2(=O)=O | > 100 µM | > 100 µM | > 100 µM | > 100 µM | > 100 µM | > 100 µM | > 100 µM | > 100 µM | > 100 µM | > 100 µM | > 100 µM | > 100 µM | > 100 µM | > 100 µM |  | > 100 µM | > 100 µM | > 100 µM |
| CC(/C=C/C(=O)NO)=C\C(C)C(=O)c1ccc(N(C)C)cc1 (stereo not given) | 0.0863 µM |  | 11.5 µM | 14.6 µM |  |  |  | 4 µM | 0.0658 µM | 0.454 µM | 0.206 µM | 0.063 µM | 0.234 µM | 0.262 µM | > 100 µM | 10.7 µM | > 100 µM | > 60.4 µM |
| CC(=O)Nc1ccc2c3c(cc(O)c2c1)N(C(=O)CCCC(=O)N1CC(CCl)c2c1cc(O)c1cc(NC(C)=O)ccc21)CC3CCl (stereo not given) | 0.183 µM | < 0.01 µM |  | 0.0596 µM | > 100 µM | > 100 µM |  | 0.0325 µM | > 100 µM |  | > 100 µM | 0.0173 µM | < 0.0262 µM | 0.0604 µM |  | 0.421 µM | < 0.01 µM | 0.306 µM |
| CC(C)[N+]([O-])(CCCNc1c2ccccc2nc2cccc([N+](=O)[O-])c12)C(C)C | 6.2 µM | 1.98 µM | 3.94 µM | 1.77 µM | > 100 µM | 0.427 µM |  | 0.168 µM | 1.78 µM | 0.904 µM | 0.862 µM | 0.356 µM | 0.629 µM | 1.35 µM | 14.9 µM | 11.5 µM |  | 0.221 µM |
| CSc1ncnc2c1ncn2CCC(=O)O | > 100 µM | > 100 µM | > 100 µM | > 100 µM | > 100 µM | > 100 µM | > 100 µM | > 100 µM | > 100 µM | > 100 µM | > 100 µM | > 100 µM | > 100 µM | > 100 µM | > 100 µM | > 100 µM |  |  |
